This passage reports TGI and GI50 results from PubChem BioAssay (NCI).

Values joined by “and” are separate entries in the source; they are usually repeats but may differ in a detail not shown here. Identical values can stand only once.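 Step 1: Grow cells in 96-well plates. Step 2: Expose to compound for 48 hours at 5 concentrations. Step 3: Interpolate endpoints linearly; if unreached, use highest concentration. GI50 is the concentration that inhibits growth by half. TGI marks complete inhibition of growth.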

Holding throughout (experiment): DTP human tumour cell line panel, 48 h
Assay [1] deals with A549 NSCLC.
The subject of assay [2] is HOP-92 NSCLC.
The subject of assay [3] is LOX IMVI melanoma.
Assay [4] has as its system MDA-MB-435.
Assay [5] deals with NCI-H460 lung.
The test system of assay [6] is NCI/ADR-RES ovarian.
In assay [7] the test system is SF-539 CNS.
Assay [8] deals with T-47D breast.
Assay [9] concerns TK-10 renal.

`C/C=C(\C)c1cc(=O)c2c(C)cc3c(c2o1)C(=O)c1c(O)c(C2CC(C)(N(C)C)C(OC(C)=O)C(C)O2)cc(C2CC(N(C)C)C(O)C(C)O2)c1C3=O` (stereo not given): the concentration for total growth inhibition (TGI) in assay [1] was above 50 µM; in [2], 30.9 µM; in [3] it was 6.91 µM; in [4] it was 3.45 µM; in assay [5] it was 5.94 µM; in [6] it was 9.16 µM. Moreover, the total growth inhibition concentration (TGI) in [7] is 2.59 µM; in assay [8], 38.2 µM; in assay [9] it was above 30 µM.
With `O=C(NCCCCN1CCOCC1)c1cc2ccccc2o1`, the GI50 in assay [1], in [3], in assay [4], in [5], in [6] and in [7] was above 100 µM throughout. The GI50 in assay [8] and in assay [9] was above 100 µM each time. Further, the TGI in [1], in assay [3], in assay [4], in assay [5], in assay [6] and in assay [7] was above 100 µM in each case. Also, the TGI in assay [8] and in assay [9] was above 100 µM each time.
On to `CC(=O)Nc1ccc(/C=C/C(=O)c2sc(-c3cccnc3)nc2C)cc1`, for which the TGI in [1], in assay [2], in assay [3], in assay [5], in [7] and in assay [9] was above 100 µM each time.
Consider `Cc1c(C)n(CCCN2CCN(C)CC2)c2ccc(Oc3cccc(C(=O)N4CCN(CCc5ccc(F)cc5)CC4)c3)cc12`, for which the GI50 is 1.81 µM in [1]; 1.75 µM in assay [3]; 1.78 µM in assay [4]; 1.86 µM in assay [5]; 1.79 µM in [6]; 1.63 µM in [7]. The GI50 in assay [9] was 1.62 µM. Besides, the TGI was 3.62 µM in assay [1]; 3.19 µM in [3]; 3.33 µM in assay [4]; 3.45 µM in [5]; 3.54 µM in assay [6]; 3.03 µM in assay [7]. In [9], this compound returned a TGI of 3.23 µM.
Regarding `CCN(CC)CCCNc1nccc2c(C)c3c(cc12)c1cnccc1n3C`, the concentration for total growth inhibition (TGI) was found to be 1.37 µM in assay [1]; 0.268 µM in assay [3]; 0.14 µM in [5]; 0.609 µM in assay [7]; 3.26 µM in assay [9].
`COc1cc2cc(OC(C)=O)c3cc4c(cc3c2c(OC)c1OC)OCO4`: the concentration for total growth inhibition (TGI) in assay [1], in [3], in assay [5], in assay [7] and in [9] was above 100 µM in each case.
Turning to `O=C1[C@H]2ON(c3ccccc3)C(c3ccc([N+](=O)[O-])cc3)[C@H]2C(=O)N1c1ccc(Cc2ccc(N3C(=O)[C@@H]4ON(c5ccccc5)C(c5ccc([N+](=O)[O-])cc5)[C@@H]4C3=O)cc2)cc1` (stereo not given in full), the concentration for total growth inhibition (TGI) in assay [1] was above 100 µM; in assay [2] it was 99 µM; in assay [3], above 100 µM; in assay [5] it was above 100 µM; in assay [7], above 100 µM; in [9], above 100 µM.
As to `COC(=O)[C@@H]1c2cc3c(c(O)c2[C@@H](OC2OC(C)C(OC)C(C)(OC)C2OC)C[C@]1(C)O)C(=O)c1c(O)cc2c(c1C3=O)O[C@H]1O[C@]2(C)[C@H](O)[C@@H](N(C)C)[C@@H]1O` (stereo not given in full), the total growth inhibition concentration (TGI) in assay [1] was 10.3 µM; in assay [2] it was 0.0546 µM and 0.418 µM; in [3] it was 0.152 µM and 1.22 µM; in assay [4], 0.188 µM; in assay [5] it was 0.0336 µM; in assay [7], 0.16 µM and 0.0302 µM. Further, the TGI in [8] turned out to be 0.889 µM. Further, in assay [9], the GI50 was 0.0386 µM.
With `O=C(CN(/C=C/C(=O)C(F)(F)F)c1ccc(Cl)cc1)c1ccc(Cl)cc1`, the GI50 in [1] was 13.2 µM; in assay [2], 19.2 µM; in assay [3], 4.61 µM; in [4] it was 7.83 µM; in assay [5], 11.9 µM; in assay [6] it was 9.07 µM. Moreover, the GI50 in assay [7] is 19.2 µM; in [8], 5.88 µM; in [9], 4.78 µM. The TGI in assay [1] amounted to 32.1 µM; in [2] it was 35.8 µM; in [3] it was 20.9 µM; in [4], 29 µM; in [5], 35.3 µM; in [6] it was 37 µM. For the same compound, the TGI in assay [7] was determined as 36.9 µM; in assay [8], 38.3 µM; in [9], 19.3 µM.
As to `CC(=O)O[C@@H]1C2CCC3C(CC[C@@]4(C)C3CC[C@@H]4C(C)N(C)C)[C@@]2(C)CC[C@@H]1NC(=O)C=C(C)C` (stereo not given in full), the GI50 in assay [1] is 2.58 µM; in assay [2], 1.66 µM; in assay [3], 1.47 µM; in [4] it was 1.92 µM; in assay [5], 1.67 µM; in assay [6] it was 4.26 µM. The GI50 in assay [7] is 1.34 µM; in [8] it was 1.75 µM; in assay [9] it was 5.21 µM. Moreover, the concentration for total growth inhibition (TGI) in assay [1] is 6.27 µM; in assay [2], 10.7 µM; in assay [3], 3.09 µM; in assay [4], 4.26 µM; in [5], 3.31 µM; in [6], 17.7 µM. Besides, the figures for the total growth inhibition concentration (TGI) in [7], in assay [8] and in assay [9] were 2.71 µM, 6.23 µM and 17.4 µM, respectively.
On to `CCCCCCCCCCCCCCCC1=NCC[N+]1(CCO)CCO`, for which the GI50 was 2.28 µM in assay [1]; 2.1 µM in assay [4]; 1.84 µM in [5]; 2.62 µM in [6]; 1.91 µM in assay [7]; 3.35 µM in assay [8]. Moreover, the GI50 in [9] is 3.55 µM. Also, the total growth inhibition concentration (TGI) in [1] came to 5.35 µM; in assay [4] it was 4.4 µM; in [5], 3.47 µM; in [6], 6.61 µM; in assay [7], 4 µM; in [8], 13.2 µM. This compound gave a TGI in [9] of 13.6 µM.
In the case of `CC1=N/C(=C/c2ccc3c(c2)OCO3)C(=O)O1`, the TGI in assay [1], in [2], in assay [3], in assay [7] and in assay [9] was above 100 µM throughout.
For `C=CCNC(=O)NCCCCC(NC(C)=O)C(=O)NCc1ccccc1` (stereo not given), the TGI in [1], in [2], in assay [3], in assay [5], in assay [7] and in [9] was above 100 µM in each case.
Turning to `Nc1nc(/C=C\c2ccc([N+](=O)[O-])s2)nc(N2CCN(c3ccccc3)CC2)n1`, the GI50 in [1] was 33.6 µM; in assay [2], 22.8 µM; in assay [3], 15.7 µM; in [4] it was 19.2 µM; in assay [5], 24.1 µM; in assay [6] it was 21.3 µM. Further, the GI50 was 40.9 µM in assay [7], 14.2 µM in assay [8] and 72.1 µM in assay [9]. The total growth inhibition concentration (TGI) in [1] was above 100 µM; in assay [2], 57.1 µM; in assay [3], 29.1 µM; in [4] it was 43.6 µM; in assay [5] it was 59.1 µM; in [6], 53 µM. Also, the TGI was above 100 µM in [7], 43.2 µM in assay [8] and above 100 µM in assay [9].
Consider `COc1cc(/C=C2\CC3C4CC=C5C[C@@H](OC(C)=O)CC[C@]5(C)C4CC[C@]3(C)C2=O)ccc1OCCN1CCCCC1` (stereo not given in full), for which the GI50 in [1] is 3.42 µM; in [3], 1.26 µM; in [4] it was 1.93 µM; in assay [5], 3.02 µM; in [6], 3.56 µM; in assay [7] it was 2.02 µM. The GI50 in [8] was 2.98 µM; in [9], 3.4 µM. Also, the TGI in assay [1] is above 100 µM; in assay [3], 3.31 µM; in assay [4], 4.28 µM; in [5] it was 11.6 µM; in assay [6], 6.89 µM; in [7] it was 3.82 µM. Also, the TGI in [8] turned out to be 13.1 µM; in assay [9], 12.3 µM.
Consider `CC(C)(C)C1=CC(=C(P(=O)(O)O)P(=O)(O)O)C=C(C(C)(C)C)C1=O`, for which the TGI in [1], in assay [2], in [3], in assay [5], in assay [7] and in assay [9] was above 50 µM throughout.
On to `O=C(CSc1nc2c(n1Nc1ccccc1)-c1ccccc1SC2)Nc1nc(-c2ccc(Cl)cc2)cs1`, for which the GI50 in [2] was 11.6 µM; in [3], above 100 µM; in assay [6], 25.5 µM; in [7], 25.8 µM; in assay [8], 26.6 µM; in assay [9], 22.9 µM. For the same compound, the TGI was 71 µM in assay [2]; above 100 µM in [3]; above 100 µM in [6]; above 100 µM in assay [7]; above 100 µM in assay [8]; 58.9 µM in assay [9].
Turning to `CC(C)N(C(=O)C12C3C4C5(C#N)C3C1(C#N)C5C42C#N)C(C)C` (stereo not given), the concentration for total growth inhibition (TGI) in assay [1], in assay [3], in assay [5], in [7] and in [9] was above 100 µM each time.
For the compound `COC(=O)c1cc2c(=O)n(C)c3ccccc3n2c1C(=O)OC`, the TGI in [1] was above 100 µM; in [2], above 100 µM; in assay [3], above 100 µM; in assay [5] it was above 100 µM; in assay [7] it was 75.8 µM; in [9], 77.4 µM.
With `OC(CNc1ccnc2cc(Cl)ccc12)CNc1ccnc2cc(Cl)ccc12`, the GI50 is 4.49 µM in assay [1]; 4.22 µM in [2]; 1.67 µM in assay [4]; 1.83 µM in assay [5]; above 100 µM in assay [6]; 1.74 µM in [7]. Also, the GI50 in assay [9] is 2.13 µM. Further, the concentration for total growth inhibition (TGI) in assay [1] is 21.2 µM; in [2], 19.1 µM; in assay [4], 3.1 µM; in assay [5], 3.52 µM; in assay [6] it was above 100 µM; in [7] it was 3.3 µM. Moreover, the concentration for total growth inhibition (TGI) in assay [9] is 4.86 µM.
With `CCOC(OC(C)=O)[C@@H]1C=C[C@H](C)N(c2ccc([N+](=O)[O-])cc2)O1` (stereo not given in full), the total growth inhibition concentration (TGI) in assay [1] is 43.4 µM; in assay [2], 16.2 µM; in [3] it was 4.12 µM; in assay [5], 34.2 µM; in assay [7], 8.44 µM; in [9], 14 µM.
Take `CSc1ccc2c(cc1=O)[C@@H](NC(=O)c1cccc([N+](=O)[O-])c1)CCc1cc(O)c(O)c(O)c1-2`: the TGI in assay [1] is above 100 µM; in assay [2], above 100 µM; in [3] it was 32.2 µM; in assay [5], above 100 µM; in assay [7], 62.9 µM; in [9], above 100 µM.
Consider `N#C/C(=C\c1cc(O)cc(O)c1)C(N)=O`, for which the concentration for total growth inhibition (TGI) in assay [1], in assay [2], in [5], in [7] and in assay [9] was above 100 µM throughout.
In the case of `C=CCC1(CN(C)C)CC/C(=C\c2ccc(OC)cc2)C1=O` (stereo not given), the TGI in assay [1], in assay [2], in assay [3], in assay [5], in [7] and in assay [9] was above 100 µM in each case.
As to `CC1(C)OC2C(CCP(=O)(O)O)OC(c3nc(C(N)=O)cs3)C2O1` (stereo not given), the concentration for total growth inhibition (TGI) in [1], in assay [2], in assay [3], in assay [5] and in assay [9] was above 100 µM each time.
For the compound `NNC(=O)C(=O)N/N=C(\CCCC(=O)Nc1ccc(Cl)cc1)CC(=O)c1ccc(F)cc1`, the TGI in assay [1], in assay [2], in [3], in assay [5] and in [9] was above 100 µM throughout.

The TGI is the concentration giving total growth inhibition. The low end stands for greater sensitivity of the cells, the high end for lower sensitivity of the cells. Broadly, the GI50 is the concentration that inhibits growth by half.
